Assay [1] concerns mouse eggs. The assay can be described thus: [Ca2+]i monitoring in fura-2 D loaded mouse eggs after agonist injection or exposure. Type of assay: cell-based. Conditions: for Frequency of [Ca2+]i rises, in words: SF and adenophostin A compared with fertilization, p<0.05; for Amplitude of 1st rise / Amplitude of 3rd rise: [Ca2+]i; for Amplitude of 1st rise / Amplitude of 3rd rise / # of rises in 5 min / Duration of 1st rise / Duration of 3rd rise: mean ± SEM; for # of rises in 5 min: frequency during 5 min after return of first rise to baseline (Adenophostin A, SF) or after addition (SrCl2, thimerosal). As for the experimental part:
Microinjection procedures were carried out as previously described (Wu et al., Dev. Biol. 203: 369-81 (1998)). Briefly, eggs were placed in a 50 μl microdrop of TL-Hepes supplemented with 2.5% sucrose and 20% FCS under paraffin oil and injected using manipulators (Narishige, Medical Systems Corp., Great Neck, N.Y.) mounted on a Nikon Diaphot microscope (Nikon, Inc., Garden City, N.Y.). Injection pipettes were loaded by suction from a 2-3 μl drop containing one of the following compounds: 0.5 mM fura-2 dextran (fura-2 D; […] K. Tanzawa, Sankyo Colo., Tokyo, Japan). All reagents were diluted in buffer containing 75 mM KCl and 20 mM HEPES, pH 7.0 and were delivered into the ooplasm by pneumatic pressure using a PLI-100 picoinjector (Medical Systems Corp.). […] Wu et al., 1998), and 100 nM for adenophostin A. […] Exp. Zool. 226: 311-14 (1983); and […] et al., J. Reprod. […] Swann, Biochem J. 287: 79-84 (1992); and Sato et al., Biol. Reprod. 58: 867-73 (1998)). […] Activation was started in all cases at 16 hr post hCG administration (phCG) and eggs evaluated visually 2 hr later by observing second polar body extrusion (18 hr phCG) and 5 hr post-treatment by evaluation of pronuclear formation. After the activation procedure and the assigned incubation period (1, 2, 4 or 8 hr), eggs were collected in 5 μl Dulbecco's phosphate buffered solution (DPBS)/polyvinylpyrrolidone (3 mg/ml, PVP) and stored at -80° C. […] Ethanol activation was carried out by exposing eggs to a 7% ethanol solution in TL-Hepes plus 3 mg/ml bovine serum albumin (BSA) for 5 min at 37° C. After the treatment, eggs were washed several times in TL-Hepes, and cultured for 8 hr (24 hr-phCG). […] Biol. 166: 729-39 (1994)) was accomplished by incubating eggs with 5 μM ionomycin for 5 min in Ca^2+ free-DPBS plus 3 mg/ml BSA. Eggs were then washed in TL-Hepes/1 mg/ml BSA, placed in DMAP/KSOM (2 mM) for 4 hr and cultured for 4 hr after carefuilly washing them free of DMAP. Eggs activated with SrCl2 were incubated for 2 or 4 hr in a Ca^2+-free M-16-like medium supplemented with 10 mM SrCl2. The treated eggs were then washed in TL-Hepes supplemented with 5% FCS and cultured for 2, 4 or 6 hr, depending on the experiment. […] Fluorescence Recordings and [Ca^2+]i Determinations Monitoring of [Ca^2+]i levels using fura-2 D loaded eggs was carried out as previously described (Wu et al., 1998). UV illumination was provided by a 75 watt xenon arc lamp, and 340 and 380 nm excitation wavelengths were utilized. The intensity of the UV light was attenuated 32-fold with neutral density filters, and a photomultiplier tube quantified the emitted light after passing through a 500 nm barrier filter. The fluorescence signal was averaged for the whole egg. A modified Phoscan 3.0 software program run on a 486 IBM-compatible system controlled the rotation of the filter wheel and shutter apparatus to alternate wavelengths. Free [Ca^2+]i was determined from the 340 nm/380 nm ratio of fluorescence. Rmin and Rmax were calculated using […] fura-2 D in Ca^2+-free DPBS supplemented with 2 mM EDTA (Rmin) or 2 mM CaCl2 (Rmax) and with 60% sucrose to correct for intracellular viscosity (Grynkiewicz et al., J. Biol. Chem. 260: 3440-50 (1985); and Poenie, Cell Calcium 11: 85-91 (1990)). The same solutions were also used alone for background subtractions. Ca^2+ measurements carried out in the presence of extracellular SrCl2 are presented as fluorescence ratios of the 340 nm/380 nm excitation wavelengths. Calculations of the [Ca^2+]i concentration was in this case not performed, since fura-2 has also some affinity for Sr^2+. The presence of intracellular Sr^2+ therefore interferes and prevents obtaining […] and/or Sr2+ intracellular concentrations (Hajnoczky et al., EMBO J., 16: 3533-43 (1997)). Eggs were measured individually in 35 μl drops of TL-Hepes medium placed on a glass coverslip on the bottom of a plastic culture dish under paraffin oil. […]

In the next assay the test system is IP3R. The following applies: full IP3R agonist; cited from earlier work.
The test system of a further assay is IP3R-1. The assay is described as follows: Western blot quantification of IP3R-1 immunoreactivity in mouse eggs. The following applies: for IP3R-1 down-regulation (degradation): activation started 16 hr phCG, band intensity relative to MII eggs. Type of assay: cell-based. The source says: (§1) Several commonly used parthenogenetic agents were used during the course of these studies, including ethanol and ionomycin, which induce a single [Ca^2+]i rise (Cuthbertson, J. Exp. Zool. 226: 311-14 (1983); and Shiina et al., J. Reprod. Fert 97: 143-50 (1993)), and others such as adenophostin A, SF, thimerosal, and SrCl2 that evoke [Ca^2+]i oscillations (Kline et al., Dev. Biol. 149: 80-9 (1992); Swann, Biochem J. 287: 79-84 (1992); and Sato et al., Biol. Reprod. 58: 867-73 (1998)). The activating compounds were either injected into eggs (e.g., adenophostin A and SF, see microinjection procedures for details) or added to the eggs' culture media (e.g., thimerosal, SrCl2). Activation was started in all cases at 16 hr post hCG administration (phCG) and eggs evaluated visually 2 hr later by observing second polar body extrusion (18 hr phCG) and 5 hr post-treatment by evaluation of pronuclear formation. After the activation procedure and the assigned incubation period (1, 2, 4 or 8 hr), eggs were collected in 5 μl Dulbecco's phosphate buffered solution (DPBS)/polyvinylpyrrolidone (3 mg/ml, PVP) and stored at −80° C.
(§2) Ethanol activation was carried out by exposing eggs to a 7% ethanol solution in TL-Hepes plus 3 mg/ml bovine serum albumin (BSA) for 5 min at 37° C. After the treatment, eggs were washed several times in TL-Hepes, and cultured for 8 hr (24 hr-phCG). Activation with ionomycin and 6-dimethylaminopurine (DMAP), a kinase inhibitor (Susko-Parrish et al., Dev. Biol. 166: 729-39 (1994)) was accomplished by incubating eggs with 5 μM ionomycin for 5 min in Ca^2+ free-DPBS plus 3 mg/ml BSA. Eggs were then washed in TL-Hepes/1 mg/ml BSA, placed in DMAP/KSOM (2 mM) for 4 hr and cultured for 4 hr after carefuilly washing them free of DMAP. Eggs activated with SrCl2 were incubated for 2 or 4 hr in a Ca^2+-free M-16-like medium supplemented with 10 mM SrCl2. The treated eggs were then washed in TL-Hepes supplemented with 5% FCS and cultured for 2, 4 or 6 hr, depending on the experiment. For thimerosal activation, eggs were exposed to freshly made solutions of 200 μM thimerosal in KSOM for 30 min. Thimerosal-treated eggs were washed free of the reagent using TL-Hepes supplemented with 5% FCS and incubated for 30 min, 1.5, 3.5 or 7.5 hr.
Lactacystin (100 μM; Calbiochem, La Jolla, Calif.), a proteasome inhibitor (Mellgren, J. Biol. Chem. 272: 29899-903 (1997); and Fenteany et al., J. Biol. Chem. 273: 8545-48 (1998)), was used to determine if the proteasome was involved in down-regulation of the IP3R-1 by SF. Eggs were incubated in the inhibitor for 30 min. prior to injections, and injections of SF were carried out in the presence of the inhibitor. Eggs were then cultured in a new drop of KSOM freshly supplemented with lactacystin for 2 hr.
Equal volumes of crude lysates from 15 or 20 mouse eggs and double strength sample buffer (Laemmli, Nature 227: 680-5 (1970)) were combined as previously described (He et al., Biol. Reprod. 57: 1245-55 (1997)). Samples were boiled for 3 min and loaded into a 4% SDS-polyacrylamide gels. The separated proteins were transferred onto nitrocellulose membranes (Micron Separation; Westboro, Mass.) using a Mini Trans Blot Cell (Bio-Rad; Hercules, Calif.) for 2 hr at 4° C. The membranes were first washed in PBS and 0.05% Tween (PBS-T) and then blocked in 6% nonfat dry milk in PBS-T for 1 hr. […]

Assay [2] deals with mouse eggs. The assay can be described thus: Parthenogenetic activation of mouse eggs (second polar body extrusion, pronuclear formation). Conditions: for Egg activation: result in words. It counts as cell-based.
Excerpt: as §1
as §2, with “For thimerosal activation, eggs were exposed to freshly made solutions of 200 μM thimerosal in KSOM for 30 min. Thimerosal-treated eggs were washed free of the reagent using TL-Hepes supplemented with 5% FCS and incubated for 30 min, 1.5, 3.5 or 7.5 hr.” left out

Entries after “also recorded” stand apart in the source; their conditions may differ. Marks after values point to notes of the source that are not given here.

Turning to `Nc1ncnc2c1ncn2[C@@H]1O[C@H](CO)[C@@H](O[C@H]2O[C@H](CO)[C@@H](OP(=O)(O)O)[C@H](OP(=O)(O)O)[C@H]2O)[C@H]1OP(=O)(O)O` [Adenophostin A, adenophostin A], in the assay with mouse eggs [1], the “Frequency of [Ca2+]i rises, in words” value is “higher frequency”; the “Amplitude of 1st rise” value is 620 ± 30^a, b nM; the “Amplitude of 3rd rise” value is 530 ± 100^a nM; the “# of rises in 5 min” value is listed as 3.9 ± 1.5^a*,*. Besides, in the assay with mouse eggs [1], the “Duration of 1st rise” value was 260 ± 65^a sec and the “Duration of 3rd rise” value was 70 ± 22^a sec. In addition, the “Potency relative to IP3” value in the assay on IP3R is “approximately 100 fold”. In addition, the “IP3R-1 down-regulation (degradation)” value with IP3R-1 is given as “significant down-regulation; also recorded: near total down-regulation”.

Turning to `C[CH2][Hg][S]c1ccccc1C(=O)[O-].[Na+]` [Thimerosal, thimerosal], in the assay with mouse eggs [1], the “Frequency of [Ca2+]i rises, in words” value is “low frequency”; the “Amplitude of 1st rise” value is reported as 330 ± 30^b nM; the “Amplitude of 3rd rise” value is listed as 640 ± 90^a nM; the “# of rises in 5 min” value is recorded as 1 ± 0.4^b. In the assay on mouse eggs [1], the “Duration of 1st rise” value was 180 ± 44^a sec and the “Duration of 3rd rise” value was 70 ± 16^a sec. Besides, the “IP3R-1 down-regulation (degradation)” value with IP3R-1 was “rapid and sustained down-regulation”.

Regarding `[Cl-].[Cl-].[Sr+2]` [SrCl2], in the assay with mouse eggs [2], the Egg activation result is “high rates of egg activation”. For the same molecule, in the assay with mouse eggs [1], the “Frequency of [Ca2+]i rises, in words” value is “lower frequency”; the “# of rises in 5 min” value is reported as 1 ± 0.0^b; the “Duration of 1st rise” value was 740 ± 290^b sec; the “Duration of 3rd rise” value was 360 ± 70^b sec. Also, in the assay on IP3R-1, the “IP3R-1 down-regulation (degradation)” value was “failed to induce any changes”.

Take `CCO` [ethanol]: in the assay with mouse eggs [2], the Egg activation entry is given as “high rates of activation”. Besides, the “IP3R-1 down-regulation (degradation)” value with IP3R-1 is listed as “does not induce down regulation of IP3R-1”.

Turning to `CC(=O)N[C@@H](CSC(=O)[C@]1([C@@H](O)C(C)C)NC(=O)[C@H](C)[C@@H]1O)C(=O)O` [lactacystin], the “Cell cycle progression assessed by extrusion of the polar body in SF-injected eggs” value in the assay on mouse eggs [2] (eggs pretreated and incubated with inhibitor, not shown) is on record as “clearly delayed”. For the same molecule, the “Effect on SF-induced degradation of IP3R-1” value in the assay with IP3R-1 (100 μM inhibitor, 30 min preincubation, 2 hr after SF injection) is given as “markedly inhibited”.

The values are drawn from patent US20070174926A1, “Sperm factor oscillogenin” (priority 2000, published 2007).
